Test results: US6645983B1, “Pharmaceutical compositions comprising 4-quinolones for treating cancers” (Laboratoire L. Lafon, priority 1999, dated 2003)
Read-outs that look alike come from different tables or passages of the source.

Legend:
J82 = assay: MTT test, cytotoxic activity on non-clonogenic cell lines; format: cell-based; details: Homo sapiens, 10^−5 M, mean value
Method: (§1) The principle of the MTT test is based on the mitochondrial reduction, by the metabolically active live cells, of the yellow-colored product MTT (3-(4,5-dimethylthiazol-2-yl)-2,5-diphenyltetrazolium bromide) to a blue-colored product, formazan. The amount of formazan thus obtained is directly proportional to the amount of live cells present in the culture well(s). This amount of formazan is measured by spectrophotometry.
(§2) The cell lines are maintained as a monolayer culture at 37° C. in stoppered culture dishes containing MEM 25 MM HEPES (Minimum Essential Medium) base medium. This medium is suited to the growth of a range of various mammalian diploid or primary cells. This medium is then supplemented with:
(§3) The 12 human cancer cell lines which were used were obtained from the American Type Culture Collection (ATCC, Rockville, Md., USA). These 12 cell lines are:
(§4) J82 (code ATCC: HTB-1) and T24 (code ATCC: HTB-4) which are two bladder cancers,
(§5) Experimentally, 100 μl of a cell suspension containing 20 000 to 50 000 (depending on the cell type used) cells/ml of culture medium are inoculated -in 96-well flat-bottomed multi-well plates and are left to stand in an incubator at 37° C., 5% CO2 and 70% humidity. After an incubation time of 24 hours, the culture medium is replaced with 100 μl of fresh medium containing either the various test compounds—at concentrations varying from 10^−5 to 10^−10 M—or the solvent having served for dissolving the products to be tested (control condition). […] The microplates are thus incubated for 3 hours at 37° C., then centrifuged for 10 minutes at 400 g. The yellowish solution of MTT is removed and the blue formazan crystals formed in the cell region are dissolved in 100 μl or DMSO. The microplates are then shaken for 5 minutes. […] Software incorporated in the spectrophotometer calculates the average optical density values and the standard deviation (SD) and standard error of mean (SEM) values.

T24 = assay: as above; format: cell-based; details: Homo sapiens, T-24, 10^−5 M, mean value
Method: as §1, §2, §3, §4, §5

SW1088 = assay: as above; format: cell-based; details: Homo sapiens, 10^−5 M, mean value
Method: as §1, §2, §3
SW1088 (code ATCC: HTB-12) which is an astro-cytoma,
as §5

[1] = Determination of the maximum tolerated dose (MTD); details: B6D2F1/Jico, mouse, in vivo, ip; single intraperitoneal administration, doses 2.5 to 160 mg/kg, survival over 14 days
Method: The evaluation of the maximum tolerated dose was performed on 4- to 6-week-old B6D2F1/Jico mice. The compounds were administered intraperitoneally at increasing doses ranging from 2.5 to 160 mg/kg. The value of the MTD (expressed in mg/kg) is determined from the observation of the survival rate of the animals over a 14-day period after a single administration of the product under consideration. The change in weight of the animals is also monitored during this period. When the MTD value is greater than 160 mg/kg, the MTD value is considered as being 160 mg/kg by default.

PC-3 = assay: MTT test, cytotoxic activity on non-clonogenic cell lines; format: cell-based; details: Homo sapiens, 10^−5 M, mean value
Method: as §1, §2, §3, §5

HCT-15 = assay: as above; format: cell-based; details: Homo sapiens, mean value
Method: as §1, §2, §3, §5

MCF7 = assay: as above; format: cell-based; details: Homo sapiens, 10^−5 M, mean value
Method: as §1, §2, §3, §5

A549 = assay: as above; format: cell-based; details: Homo sapiens, 10^−5 M, mean value
Method: as §1, §2, §3, §5

LoVo = assay: as above; format: cell-based; details: Homo sapiens, 10^−5 M, mean value
Method: as §1, §2, §3, §5

U-87MG = assay: as above; format: cell-based; details: Homo sapiens, 10^−5 M, mean value
Method: as §1, §2, §3, §5

T-47D = assay: as above; format: cell-based; details: Homo sapiens, T47D, 10^−5 M, mean value
Method: as §1, §2, §3, §5

A-427 = assay: as above; format: cell-based; details: Homo sapiens, 10^−5 M, mean value
Method: as §1, §2, §3, §5

U-373MG = assay: as above; format: cell-based; details: Homo sapiens, U373 MG, 10^−5 M, mean value
Method: as §1, §2, §3, §5

[2] = 72 hours incubation, MTT, read-out: mean optical density, expressed as percentage relative to the mean optical density under the control condition (100%)
[3] = T24, 72 hours incubation, MTT, read-out: mean optical density, expressed as percentage relative to the mean optical density under the control condition (100%)
[4] = HCT-16, 10^−5 M, 72 hours incubation, MTT, read-out: mean optical density, expressed as percentage relative to the mean optical density under the control condition (100%)
[5] = U-87MG, 72 hours incubation, MTT, read-out: mean optical density, expressed as percentage relative to the mean optical density under the control condition (100%)
[6] = T-47D, 72 hours incubation, MTT, read-out: mean optical density, expressed as percentage relative to the mean optical density under the control condition (100%)
[7] = U-373MG, 72 hours incubation, MTT, read-out: mean optical density, expressed as percentage relative to the mean optical density under the control condition (100%)
[8] = 72 hours of incubation, control condition = 100%, read-out: mean optical density as percentage of control, J82
[9] = 72 hours of incubation, control condition = 100%, read-out: mean optical density as percentage of control, T24
[10] = 72 hours of incubation, control condition = 100%, read-out: mean optical density as percentage of control, SW1088
[11] = 72 hours of incubation, control condition = 100%, read-out: mean optical density as percentage of control, PC-3
[12] = 10^−5 M, 72 hours of incubation, control condition = 100%, read-out: mean optical density as percentage of control, HCT-16
[13] = 72 hours of incubation, control condition = 100%, read-out: mean optical density as percentage of control, MCF7
[14] = 72 hours of incubation, control condition = 100%, read-out: mean optical density as percentage of control, A549
[15] = 72 hours of incubation, control condition = 100%, read-out: mean optical density as percentage of control, LoVo
[16] = U-87 MG, 72 hours of incubation, control condition = 100%, read-out: mean optical density as percentage of control, U-87MG
[17] = 72 hours of incubation, control condition = 100%, read-out: mean optical density as percentage of control, T-47D
[18] = 72 hours of incubation, control condition = 100%, read-out: mean optical density as percentage of control, A-427
[19] = 72 hours of incubation, control condition = 100%, read-out: mean optical density as percentage of control, U-373MG

SMILES	MTD at 14 day [1] [mg/kg]	viability at 10 µM (J82; [8]) [%]	viability at 10 µM (T24; [9]) [%]	viability at 10 µM (SW1088; [10]) [%]	viability at 10 µM (PC-3; [11]) [%]	viability at 10 µM (HCT-15; [12]) [%]	viability at 10 µM (MCF7; [13]) [%]	viability at 10 µM (A549; [14]) [%]	viability at 10 µM (LoVo; [15]) [%]	viability at 10 µM (U-87MG; [16]) [%]	viability at 10 µM (T-47D; [17]) [%]	viability at 10 µM (A-427; [18]) [%]	viability at 10 µM (U-373MG; [19]) [%]	further results
COc1ccc(-c2cn(C)c3cc(OC)cc(N)c3c2=O)cc1 [CRL8461, 5-Amino-7-methoxy-3-(4-methoxyphenyl)-1-methyl-1,4-dihydro-4-quinolinone]	> 160	–	–	–	–	–	–	–	–	–	–	–	–	viability at 10 µM (J82; [2]): 94.9%; viability at 10 µM (T24; [3]): 107%; viability at 10 µM (SW1088; [2]): 91.9%; viability at 10 µM (PC-3; [2]): 91.9%; viability at 10 µM (HCT-15; [4]): 88.5%; viability at 10 µM (MCF7; [2]): 68.2%; viability at 10 µM (A549; [2]): 99.7%; viability at 10 µM (LoVo; [2]): 92.7%; viability at 10 µM (U-87MG; [5]): 77.2%; viability at 10 µM (T-47D; [6]): 51.9%; viability at 10 µM (A-427; [2]): 90.5%; viability at 10 µM (U-373MG; [7]): 91.6%
CCN(CC)C(=O)Cn1cc(-c2ccc(OC)cc2)c(=O)c2c(OC)cc(OC)cc21 [CRL8349, N,N-Diethyl-2-[5,7-dimethoxy-3-(4-methoxyphenyl)-4-oxo-1,4-dihydro-1-quinolinyl]acetamide]	> 160	93.3	95.1	100	98.6	91.2	97.4	96.2	104	98.3	91	90.7	66.7	–
COc1ccc(-c2cn(C)c3cc(OC)cc(OC)c3c2=O)cc1 [CRL8340, 5,7-Dimethoxy-3-(4-methoxyphenyl)-1-methyl-1,4-dihydro-4-quinolinone]	> 160	90.2	82.8	84	84.8	92.5	72.3	84	93	87.6	66.1	84.2	97.9	–
COc1ccc(-c2cn(C)c3ccc(OC)cc3c2=O)cc1 [CRL8378, 6-Methoxy-3-(4-methoxyphenyl)-1-methyl-1,4-dihydro-4-quinolinone]	> 160	99.6	89.2	108	100	105	93.5	91	107	73	110	72.3	98.1	–
CCOC(=O)Cn1cc(-c2ccc(OC)cc2)c(=O)c2ccc(OC)cc21 [CRL8465, Ethyl 2-[7-methoxy-3-(4-methoxyphenyl)-4-oxo-1,4-dihydro-1-quinolinyl]acetate]	> 160	–	–	–	–	–	–	–	–	–	–	–	–	viability at 10 µM (J82; [2]): 93.6%; viability at 10 µM (T24; [3]): 91.2%; viability at 10 µM (SW1088; [2]): 89.8%; viability at 10 µM (PC-3; [2]): 96.9%; viability at 10 µM (HCT-15; [4]): 165%; viability at 10 µM (MCF7; [2]): 94.3%; viability at 10 µM (A549; [2]): 80.1%; viability at 10 µM (LoVo; [2]): 110%; viability at 10 µM (U-87MG; [5]): 105%; viability at 10 µM (T-47D; [6]): 94.4%; viability at 10 µM (A-427; [2]): 85.4%; viability at 10 µM (U-373MG; [7]): 100%
COc1ccc(-c2cn(CCCN(C)C)c3cc(OC)cc(OC)c3c2=O)cc1 [CRL8357, N-[3-(Dimethylamino)propyl]-5,7-dimethoxy-3-(4-methoxyphenyl)-1,4-dihydro-4-quinolinone]	80	84.7	99	69.6	85.6	79.5	95.8	73.3	97.9	84.4	94.1	59.5	96	–
COc1ccc(-c2c[nH]c3cc(OC)cc(OC)c3c2=O)cc1 [CRL8337, 5,7-Dimethoxy-3-(4-methoxyphenyl)-1,4-dihydro-4-quinolinone]	> 160	90.9	102	84.9	92.8	98.5	76.5	96.9	93.3	84.4	79.4	106	95.6	–
